The subject of the test is A549 human adenocarcinoma tumor cells. Kind of test: Microtubule bundling patterns in tumor cells by immunofluorescence. The test is classed as cell-based. On the set-up: key to Microtubule bundling in A549 cells: −: no effect; +/−: minimal or questionable effect; +: weak effect; ++: strong effect; +++: very strong effect equivalent to discodermolide. Conditions: for Microtubule bundling in A549 cells: subjective rating versus discodermolide. The protocol:
Discodermolide and discodermolide analogs were evaluated as to their effects on the morphology of the microtubule network of cells using mouse anti-alpha-tubulin monoclonal antibody.
On day one, 7×10^4 adherent A549 human adenocarcinoma tumor cells were cultured in TCM overnight at 37° C. in 5% CO2 on 22 mm^2 cover slips in 6-well microtiter plates. On day two, TCM was removed and replaced with 10-1000 nM discodermolide or analog in TCM or TCM without drug (control) and incubated overnight at 37° C. in 5% CO2. On day three, TCM was removed and cells attached to cover slips were fixed with a 3.7% formaldehyde solution in Dulbecco's PBS for 10 minutes at room temperature. Cells were permeabilized with a 2% Triton X-100 solution, 2 mL per well, for 5 minutes at room temperature and washed twice in Dulbecco's PBS prior to staining.
To each well containing cells attached to cover slips a 2 mL volume of mouse anti- alpha-tubulin monoclonal antibody (Cat# T-5168, Sigma Chemical Co., St. Louis, Mo.) diluted 1:1000 in Dulbecco's phosphate buffered saline (D-PBS) was added and the cells incubated at room temperature for 45 minutes. Cover slips were rinsed once with D-PBS. A 2 mL volume of goat-anti-mouse-IgG-FITC conjugated antibody (Cat# T-5262, Sigma Chemical Co., St. Louis, Mo.) diluted 1:1000 in D-PBS was added and the cells incubated at room temperature for 45 minutes. Cover slips were rinsed once in D-PBS and DNA was stained with 0.02 mg/mL propidium iodide together with 0.1 mg/mL of ribonuclease A (RNAse) A in D-PBS at 37° C. for 30 minutes. Cover slips were rinsed three times with sterile distilled water, air-dried and mounted on slides with SlowFade™ antifade solution (Molecular Probes, Eugene, Oreg.) and observed under the microscope using epifluorescence illumination for the presence of abnormal aster and microtubule bundle formations.

Take `C=CC=CC(C)C(OC(N)=O)C(C)C(O)C(C)CC(C)=CC(C)C(O)C(C)C=CC(O)CC1OC(=O)CC(O)C1C` (stereo not drawn) [2-Desmethyldiscodermolide (II), 2-desmethyldiscodermolide]: the Microtubule bundling observation result by setting is: (100 nM) “Some thin or short peripheral microtubule bundling”; (1000 nM) “extensive microtubule bundling”. For the same compound, the “Discodermolide concentration giving equivalent morphological changes” value by setting is: (analog at 100 nM) 20-50 nM; (analog at 1000 nM) 1000 nM. Under “Table 11”, the “Microtubule bundling in A549 cells” value is “+++”.

In the case of `C=C/C=C\[C@H](C)[C@H](OC(N)=O)[C@@H](C)[C@H](O)[C@@H](C)C/C(C)=C\[C@H](C)[C@@H](O)[C@@H](C)/C=C\[C@@H](O)C[C@@H]1OC(=O)[C@@H](C)[C@@H](O)[C@H]1C` [2-Epidiscodermolide (IV), 2-epidiscodermolide], for the setting “100 nM”, the “Cells with multiple aster formations, share of the population undergoing mitosis” value was “less than 10%” and the Microtubule bundling observation result is on record as “no microtubule matrix bundling”. Further, the Microtubule bundling observation entry (1000 nM) is reported as “Some minor, peripheral, polymerization of microtubule matrix”. Moreover, the “Discodermolide concentration giving equivalent morphological changes” value (analog at 1000 nM) was roughly 20 nM. Moreover, the “Microtubule bundling in A549 cells” value (Table 11) is “+”.

As for `CCCCC(C)C(OC(N)=O)C(C)C(O)C(C)CC(C)=CC(C)C(O)C(C)CCCCC1OC(=O)C(C)C(O)C1C` (stereo not drawn) [7-deoxy-8,21,23-hexahydrodiscodermolide], the Microtubule bundling observation result runs as follows: (10 nM) “no visible effect on the microtubule matrix”; (100 nM) “small amount of microtubule bundling visible in some cells”; (1000 nM) “strong microtubule bundling”. The “Discodermolide concentration giving equivalent morphological changes” value is roughly 10 nM (analog at 100 nM) and 100 nM (analog at 1000 nM). Further, the “Microtubule bundling in A549 cells” value (Table 12) is “++”.

On to `CCCCC(C)C(OC(N)=O)C(C)C(O)C(C)CC(C)=CC(C)C(O)C(C)CCC(O)CC1OC(=O)C(C)C(O)C1C` (stereo not drawn) [8,21,23-Hexahydrodiscodermolide (XII), 8,21,23-hexahydrodiscodermolide], for which the Microtubule bundling observation result is “Microtubule bundling was evident” (100 nM) and “Microtubule bundling was evident” (1000 nM). In addition, the “Microtubule bundling in A549 cells” value (Table 12) is recorded as “++”.

With `C=CC=CC(C)C(O)C(C)C(O)C(C)CC(C)=CC(C)C(O)C(C)C=CC(O)CC1OC(=O)C(C)C(O)C1C` (stereo not drawn) [19-Desaminocarbonyldiscodermolide (III), 19-desaminocarbonyldiscodermolide], the Microtubule bundling observation entry is on record as “some microtubule bundling” (100 nM) and “moderate amount of microtubule bundling” (1000 nM). Further, the “Discodermolide concentration giving equivalent morphological changes” value was 10-20 nM (analog at 100 nM) and 50-100 nM (analog at 1000 nM). Besides, the “Microtubule bundling in A549 cells” value (Table 11) was “++”.

The record behind these values is US6495594B2, “Biologically active analogs of discodermolide” (Harbor Branch Oceanographic Institution, Inc., priority 2000, dated 2002).
